Experimental data as given in US9562076B2, “Hydrophobic modified pres-derived peptides of hepatitis B virus (HBV) and their use as HBV and HDV entry inhibitors” (priority 2008, dated 2017).
Ends that are not written are not given here.

Tested on: HBV of genotype D
Type: cell-based, hepatitis B virus
Conditions: for IC90: HepaRG cells, HBV genotype D inoculum, HBsAg, Table 1
Procedure: HepaRG cells were grown in William's E medium supplemented with 10% fetal calf serum (FCS), 100 units/ml penicillin, 100 μg/ml streptomycin, 5 μg/ml insulin and 5×10^−5 M hydrocortisone hemisuccinate (16). Cells were passaged 1/5 every two weeks by trypsination. Two to three weeks before infection cell differentiation was induced by adding 2% DMSO into the maintenance medium. The medium was exchanged every 2-3 days.
As an infectious inoculum, a 50-fold concentrated culture supernatant of HepG2 clone 2.2.15 (23) cells was used, because of an unlimited supply and a constant quality. It was prepared from freshly collected supernatants by precipitating viral particles in the presence of 6% polyethylene glycol (PEG) 8000. The pellet was resuspended in phosphate buffered saline (PBS) containing 25% FCS. Aliquots were stored at −80° C. Differentiated HepaRG cells or PHH were incubated with the concentrated infectious source, 10-fold diluted in culture medium supplemented with 4% PEG 8000 (Sigma), for 20 h at 37° C. At the end of the incubation, cells were washed three times with the culture medium and maintained in the presence of 2% DMSO and 5×10^−5 M hydrocortisone hemisuccinate and harvested at indicated times.
Competition experiments were performed in 12-well plates. Approximately 1×10^6 cells were first pre-incubated for 30 min with chemically synthesized HBV derived peptides followed by a co-incubation of cells with peptide and virus for 20 h. All competition series were performed at least twice and the results of one representative experiment are shown in each case (see FIGS. 3 to 7).
HepaRG cells were infected either in absence (0 nM) or in the presence of • 1, 5, 25, 100 and 2000 nM of • HBVpreS/2-48^myr(D), • HBVpreS/2-48^myr(C), • HBVpreS/(−11)-48^myr(C), • HBVpreS/2-48^stearoyl(C) and • HBVpreS/(−11)-48^stearoyl(C); or • 0.125; 0.25; 0.5; 0.75 and 1 nM of • HBVpreS/2-48^myr(consensus), • HBVpreS/2-48^stearoyl(consensus), • 1, 5, 25, 100 and 1000 nM of • HBVpreS/2-48^stearoyl(D), • HBVpreS/2-15^stearoyl(D), • HBVpreS/2-21^stearoyl(D), • HBVpreS/2-26^stearoyl(D) and • HBVpreS/2-33^stearoyl(D); or • 1, 5, 25, 100 and 1000 nM of • HBVpreS/2-48^stearoyl(D), • HBVpreS/2-33^stearoyl(D), • HBVpreS/5-33^stearoyl(D), • HBVpreS/5-48^stearoyl(D), • HBVpreS/9-33^stearoyl(D) and • HBVpreS/9-48^stearoyl(D); or • 1, 5, 25, 100 and 1000 nM of • HBVpreS/2-48^stearoyl(D), • HBVpreS/2-48^stearoyl(D-AS^11-15)(D), • HBVpreS/2-48^stearoyl(Ala^11-15)(D), • HBVpreS/2-48^stearoyl(Δ17-21)(D), • HBVpreS/2-48^stearoyl(Ala^17-21)(D); or • 1, 5, 25, 100 and 1000 nM of • HBVpreS/2-48^stearoyl(retroinverso)(D) and • HBVpreS/2-48^stearoyl(Ala^21,23,29,30)(D); or • 1, 5, 25, 100 and 1000 nM of • HBVpreS/2-48^stearoyl(Ala^18)(D), • HBVpreS/2-48^stearoyl(Δ11-15)(D), • HBVpreS/2-48^stearoyl(Ser^13)(D), • HBVpreS/2-48^stearoyl(Arg^11)(D).; or • 50, 100, 150, 250 and 1000 pM […] of • HBVpreS/2-48^myr(C) and • HBVpreS/2-48^stearoyl(C), wherein (C) refers to HBV genotype C Q46K.
The infectious inoculum (HBV of genotype D) and the peptides were incubated overnight. After washing, cells were maintained for another 12 days to allow viral gene expression. Cell culture supernatants from day 8-12 were collected and analyzed for secreted HBSAg using a quantitative commercially available ELISA. HBsAg values from the respective uncompleted infection were set to 100% and the degree of infection inhibition is given in % of the uncompleted infection.

Molecule | IC50 (of genotype D) [nM] | inhibition of the entry of HBV genotype D by a genotype C derived peptide (cross prevention) | IC90 [nM]
CCCCCCCCCCCCCCCCCC(=O)NCC(=O)N[C@@H](CCC(N)=O)C(=O)N[C@@H](CC(N)=O)C(=O)N[C@@H](CC(C)C)C(=O)N[C@@H](CO)C(=O)N[C@H](C(=O)N[C@@H](CO)C(=O)N[C@@H](CC(N)=O)C(=O)N1CCC[C@H]1C(=O)N[C@@H](CC(C)C)C(=O)NCC(=O)N[C@@H](Cc1ccccc1)C(=O)N[C@@H](Cc1ccccc1)C(=O)N1CCC[C@H]1C(=O)N[C@@H](CC(=O)O)C(=O)N[C@@H](Cc1c[nH]cn1)C(=O)N[C@@H](CCC(N)=O)C(=O)N[C@@H](CC(C)C)C(=O)N[C@@H](CC(=O)O)C(=O)N1CCC[C@H]1C(=O)O)[C@@H](C)O [HBVpreS/2-21^stearoyl] | ~8 |  | 
HBVpreS/2-21^stearoyl(C): stearoylated residues 2 to 21 of genotype C, SEQ ID NO. 13 (GTNLSVPNPLGFFPDHQLDP; not fully specified (N-terminus); also: stearoyl) |  | can inhibit the entry of HBV genotype D | 
HBVpreS/2-48^myr(C) |  | can inhibit the entry of HBV genotype D | ~5
HBVpreS/2-48^stearoyl(C) |  |  | ~1
HBVpreS/2-48^stearoyl(D): stearoylated residues 2 to 48 of genotype D, SEQ ID NO. 16 |  |  | ~3
